Experimental data reported in patent US12648941B2, “Piperidine urea derivatives for use as inotropic agents” (Helsinn Healthcare SA, priority 2021, dated 2026).

Key:
[1] = tested on: cardiomyocytes isolated from hearts of SHAM mice; experiment: Cardiomyocyte contractility (fractional shortening, % FS), SHAM cardiomyocytes; type: cell-based, mouse; settings: antagonist 3 μM before AC01/HM01 1 μM
Procedure: (§1) Cardiomyocytes were isolated freshly from cardiac ventricles separately from SHAM and HF mice following the protocol developed by the Alliance for Cellular Signalling (AfCS Procedure Protocol ID PP00000125). From each of the 5 SHAM and 3 HF hearts a cell suspension was made and divided into 10 aliquots each, for a total of 50 aliquots from SHAM and 30 aliquots from HF hearts. These aliquots were treated with vehicle, AC01/HM01 or D-Lys3-GHPR-6+AC01/HM01 as stated and used for the subsequent physiological and biochemical experiments.
(§2) AC01/HM01 was suspended in phosphate buffer saline solution (PBS: in mM: NaCl 137, KCl 7, Na2HPO4 10, KH2PO4 […]) and diluted to obtain 3 different concentrations: 0.2, 0.5 or 1 μM in Tyrode solution. We used a concentration range within 0.2-1 μM to ensure that the receptor was activated. […] Prior to contractility and Ca^2+ signaling measurements and biochemical assays, cardiomyocyte suspensions from SHAM and HF hearts were randomized to 3 types of treatments: vehicle, AC01/HM01, or D-Lys3-GHPR-6+AC01/HM01. The treatment with different agents occurred for 15 minutes at room temperature. Some cell suspension aliquots were flash frozen in liquid N2 and stored at −80° C. for later biochemistry analyses. All the experiments were conducted blinded regarding the treatment of cardiomyocytes.
Fresh isolated cardiomyocytes were aliquoted in 1.5 mL tubes and incubated with a cell permeable form of the fluorescent Ca^2+ indicator Fluo-3 AM for approximately 20 minutes followed by washing for >5 min. The cells were plated on laminin coated glass bottom dishes (35 mm, Mattek, Ashland, MA, USA), and then mounted in a custom built perfusion/stimulation chamber. Cells were continuously perfused with O2/CO2 (95/5%) bubbled Tyrode solution with the following composition (in mM): NaCl 121, KCl 5.0, CaCl2 1.8, MgCl2 0.5, NaH2PO4 0.4, NaHCO3 24, EDTA 0.1, glucose 5.5, which represents the vehicle solution.
15 aliquots of cardiomyocyte suspension from SHAM and 9 aliquots from HF were randomized to different treatments: vehicle, AC01/HM01 (0.2, 0.5 or 1 μM) or pretreatment with D-Lys3-GHPR-6 (3 μM) followed by AC01/HM01 (1 μM). The cardiomyocytes were electrically stimulated to contract at 1 Hz with supra-threshold voltage using two platinum electrodes attached to the perfusion/stimulation chamber.
(§3) Line scan fluorescence images were acquired using a confocal microscope (Biorad; 40× oil immersion lenses). […] ImageJ software (open source software developed by NIH, Bethesda, USA) was used to quantify changes in fluorescence (Ca^2+ transients) and contractility of single cardiomyocytes.
(§4) The contractility of cardiomyocytes was measured as the percent of length shortening (fractional shortening; % FS). […]

[2] = tested on: cardiomyocytes isolated from hearts of heart failure (HF) mice; experiment: Cardiomyocyte contractility (fractional shortening, % FS), heart failure (MI) cardiomyocytes; type: cell-based, mouse; settings: antagonist 3 μM before AC01/HM01 1 μM
Procedure: as §1
AC01/HM01 was suspended in phosphate buffer saline solution (PBS: in mM: NaCl 137, KCl 7, Na2HPO4 10, KH2PO4 […]) and diluted to obtain 3 different concentrations: 0.2, 0.5 or 1 μM in Tyrode solution. We used a concentration range within 0.2-1 μM to ensure that the receptor was activated. […]
as §3, §4

[3] = tested on: phospho (Ser 22-23) cardiac troponin I (cTnl); experiment: Phospho (Ser 22-23) cTnl western blot in cardiomyocytes; type: cell-based, mouse; settings: SHAM cardiomyocytes, antagonist 3 μM before AC01/HM01 1 μM
Procedure: as §2
Aliquots of frozen cardiomyocyte suspensions were lysed using NP40 buffer (Thermo Fisher FNN0021, Stockholm, Sweden) supplemented with phosphatase inhibitors (Sigma-Aldrich P2850-1ML, P5726-1ML, Stockholm, Sweden). Protein lysates were separated by electrophoresis and transferred onto membranes. Membranes were incubated with primary antibody: rabbit anti phospho (Ser 22-23) cardiac troponin I (cTnl, Cell Signalling, Leiden, The Netherlands #4004S) and rabbit anti-cTnl (Cell Signalling #4002S, Leiden, The Netherlands). Thereafter, infrared-labelled secondary antibodies (IRDye 680 and IRDye 800, 1:5000, Licor) were used. Immunoreactive bands were analyzed using the Odyssey Infrared Imaging System (Li-Cor, Bad Homburg, Germany). Band densities were quantified with Image J (NIH, Bethesda, USA), normalized to total cTnl and final data was expressed as fold increase compared to bands representing protein extracted from vehicle treated cells.

Protein kinase A (PKA) = experiment: PKA activity assay in cardiomyocytes (ELISA-based kit); type: cell-based, mouse; settings: isolated cardiomyocytes, pretreatment before AC01/HM01 1 μM
Procedure: as §2
Elisa-based PKA kinase activity assay kit (ab139435, Abcam, Cambridge, UK) was employed to determine PKA activity in cardiomyocytes. Aliquots of frozen cardiomyocytes were thawed and mixed with a lysis buffer containing (mM) the following: 20 MOPS, 50 β-glycerolphosphate, 5 EGTA, 2 EDTA, 1 benzamidine, 1 sodium orthovanadate, 1% NP40, 1 DTT, complete protease inhibitor cocktail (Roche Diagnostics, West Sussex, UK) and phosphatase inhibitor cocktail 3 (Sigma, Gillingham, UK). Approximately 2 μg of protein of each sample were assayed according to the manufacturer's instructions 27.

ghrelin receptor = ghrelin receptor (Homo sapiens, UniProt Q92847); settings: ghrelin receptor antagonist; Sigma Aldrich; read-out: IC50 for antagonistic activity; cited from earlier work
Chain of ghrelin receptor (Q92847 whole entry, species assumed): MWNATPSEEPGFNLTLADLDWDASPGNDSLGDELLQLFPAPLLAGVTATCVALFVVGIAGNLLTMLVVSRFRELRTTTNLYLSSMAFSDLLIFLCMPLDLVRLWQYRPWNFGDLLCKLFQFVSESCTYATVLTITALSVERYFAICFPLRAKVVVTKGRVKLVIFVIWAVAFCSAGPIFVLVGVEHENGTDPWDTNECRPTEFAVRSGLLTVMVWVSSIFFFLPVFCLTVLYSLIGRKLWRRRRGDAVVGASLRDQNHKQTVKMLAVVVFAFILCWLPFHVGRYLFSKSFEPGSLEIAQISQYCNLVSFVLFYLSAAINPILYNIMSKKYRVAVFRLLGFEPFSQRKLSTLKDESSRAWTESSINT

D-Lys 3 GHRP-6 [reference compound]
effect of pretreatment on contractile effect of AC01/HM01 [1]: blocked the contractile effect | effect of pretreatment on contractile effect of AC01/HM01 [2]: blocked the contractile effect | effect of pretreatment on AC01/HM01-induced change of cTnl phosphorylation ([3]; listed as D-Lys3): blocked this effect | effect of pretreatment on AC01/HM01-induced change of cTnl phosphorylation ([3]; listed as D-Lys3—GHRP-6): restored the phosphorylation levels of cTnl to physiologic levels | effect of pretreatment on AC01/HM01-induced change of PKA activity (Protein kinase A (PKA); listed as D-Lys 3): blocked | effect of pretreatment on AC01/HM01-induced change of PKA activity (Protein kinase A (PKA); listed as D-Lys 3-GHRP-6): restored the PKA activity to physiologic levels | IC50 (ghrelin receptor): 0.9 µM
